Cytotoxicity data for 99 molecules are collected here from ChEMBL document CHEMBL3507680, “University of Dundee, Gates Library screen for HepG2 cell viability”.

The nature of this series: Human HepG2 cell viability assay in 384 well format. Set-up: dose 125 nL, time 70.5 hour; concentration not given beside the values. The following applies: HepG2 cells, read-out: Inhibition. The series is classed as toxicity, cell-based.
In the case of `COc1cccc(CNc2ccc(F)c(Cl)c2)c1O`, the cytotoxicity at 70.5 h is -4.8%.
To `Cc1nc(N2CCCC2)nc2c1CCN(C(=O)C1CCCCC1)CC2` belongs -0.729%; to `COc1ncccc1C(=O)N1CC[C@H]2C[C@H](c3ccncn3)O[C@@H]2C1`, -14.1%.
Regarding `O=C(c1ccccc1)N1CC[C@H]2C[C@H](c3nccs3)O[C@@H]2C1`, the cytotoxicity at 70.5 h is -11.2%.
To `CCN1C[C@H]2CCN(C(=O)NC)CC[C@H]2S1(=O)=O` belongs 49%; to `COc1ncccc1C(=O)N1CC[C@H]2C[C@H](c3noc(C)n3)O[C@@H]2C1`, 51.3%.
The figure for `Cn1cc(CN2CC[C@H]3OCC[C@@H](C(=O)Nc4cnccn4)[C@@H]3C2)cn1` is 50.6%; for `O=C1CC[C@H]2[C@H](CCN2C(=O)N2CCCC2)N1Cc1ccncc1` it is 50.7%.
The figure for `CNC(=O)c1cc2c(nc1NCC1CC1)CCN(c1ncccn1)CC2` is -20.8%; for `CC(C)NC(=O)N1CCN(C(=O)NC(C)C)CC2(CNC(=O)C2)C1` it is 2.71%.
With `CCNc1ncc2c(n1)CN(c1cccc(OC)c1)C2=O`, the cytotoxicity at 70.5 h is -7.43%.
Regarding `Cc1nn(C)c2cnn(Cc3ccc(C(=O)N4CCCCC4)o3)c12`, the cytotoxicity at 70.5 h is -5.62%.
To `Cc1nn(C)c2cnn(Cc3ccc(C(=O)NCC4CCCO4)o3)c12` (centres undefined) belongs -5.42%.
To `Cc1nn(C)c2cnn(Cc3ccc(C(=O)NC4CC4)o3)c12` belongs -1.57%; to `CCn1nc(C)c2c1cnn2CCNS(=O)(=O)Cc1ccccc1`, 11.3%.
Regarding `O=C(CCn1ncc2c(Cl)cccc21)NCC1CC1`, the cytotoxicity at 70.5 h was -5.33%.
With `O=C(CCn1ncc2c(Cl)cccc21)NCCCO`, the cytotoxicity at 70.5 h was -5.48%.
The figure for `CCn1nc(C)c2ncnc(N(C)C)c21` is -3.05%; for `CCN(CC)c1ncnc2c(C)nn(CC)c12` it is -0.883%; for `Cc1ccc(NC(=O)CN2CCOCC2)c(F)c1` it is 21.2%.
The figure for `CCn1nc(C)c2nc(C)nc(NCCc3ccc(C)cc3)c21` is 34.1%.
Consider `CCc1nc(Nc2ccc(C(=O)NC)cc2)c2c(n1)c(C)nn2CC`, for which the cytotoxicity at 70.5 h was -16.9%.
With `CCCc1nc(N(C)Cc2ccco2)c2c(n1)c(C)nn2CC`, the cytotoxicity at 70.5 h is -3.19%.
`CCCc1nc(NCCc2ccccc2)c2c(n1)c(C)nn2CC`: the cytotoxicity at 70.5 h is -16.2%.
The figure for `Cc1nn(C)c2c(N3CCC(C)CC3)nc(C3CC3)nc12` is -11.4%.
To `Cc1nn(C)c2c(N3CCCC3)nc(C3CC3)nc12` belongs -11.4%; to `Cc1nn(C)c2c(NCc3ccc(F)cc3)nc(C3CC3)nc12`, -5.76%; to `Cc1nn(C)c(C)c1CN(C)c1nc(C2CC2)nc2c(C)nn(C)c12`, 29.7%.
To `CCn1nc(C)c2nc(C(C)C)nc(N(C)Cc3ccco3)c21` belongs -17%.
In the case of `CCn1nc(C)c2nc(C(C)C)nc(NCc3ccccn3)c21`, the cytotoxicity at 70.5 h was determined as 0.25%.
The figure for `CCN(CC)CCNc1nc(C(C)C)nc2c(C)nn(CC)c12` is -2.61%; for `CC(C)n1cc(S(=O)(=O)N2CCSCC2)cn1` it is -4.27%.
On to `CSc1ncnc(NCc2ccccc2F)c1C#N`, for which the cytotoxicity at 70.5 h was 23.1%.
`COCCCNC(=O)c1nnsc1-c1ccccc1`: the cytotoxicity at 70.5 h was -14.7%.
The figure for `COCCNC(=O)c1cc(OC)c2ccoc2c1` is -1.33%; for `COCCCNC(=O)c1cc(OC)c2ccoc2c1` it is 22.5%.
To `CCN(CC)CCNC(=O)c1cc(OC)c2ccoc2c1` belongs -5.95%; to `CSCc1cccc(S(=O)(=O)Nc2cc(C)on2)c1`, 3.33%; to `CCN(CC)c1nc(C)cc(C(=O)Nc2ccc(Br)cc2)n1`, 3.54%.
In the case of `Cc1nc2[nH]cnc(NCCN3CCCC3)c-2n1`, the cytotoxicity at 70.5 h is -9.67%.
To `CCn1nccc1CNc1[nH]cnc2nc(C)nc1-2` belongs 27.9%; to `Cc1nc2c(N3CCN(Cc4ccccc4)CC3)nc(N)nc2n1C`, 0.226%; to `CCn1ccc(NC(=O)C2CCC(=O)N2Cc2ccc(C)o2)n1` (centres undefined), -4.94%.
Regarding `Cc1cc(C(=O)NCc2c(C)nn(C)c2C)nc(N2CCCC2)n1`, the cytotoxicity at 70.5 h was -3.65%.
For the molecule `Cc1cc(C(=O)NCc2cccs2)nc(N2CCCC2)n1`, the cytotoxicity at 70.5 h was -6.4%.
To `CCOCc1cccc(S(=O)(=O)Nc2ncc(C)s2)c1` belongs 3.25%.
To `Cc1nc(N2CCOCC2)ncc1-c1cc(O)nc(N2CCCCC2)n1` belongs 14.1%; to `Cc1cc(C)n(C(=O)c2cn(C)nc2S(=O)(=O)N2CCSCC2)n1`, -7.57%.
To `CCn1cc(C(=O)n2nc(C)cc2C)c(S(=O)(=O)N2CCCCC2)n1` belongs -3.56%; to `CSc1ccc(-c2noc(CN(Cc3ccccc3)C(C)C)n2)cc1`, -6.81%.
For the molecule `CCCN(CCC)C(=O)Cn1c(SC)nc2ccsc2c1=O`, the cytotoxicity at 70.5 h is -0.333%.
`CSc1nc2ccsc2c(=O)n1CC(=O)N(C)C1CCCCC1`: the cytotoxicity at 70.5 h was -5.09%.
To `Cc1ccn(-c2ccnc(N3CCC(N4CCCCC4)CC3)n2)n1` belongs -13.2%.
On to `Cc1ccn(-c2ccnc(N3CCSCC3)n2)n1`, for which the cytotoxicity at 70.5 h is -0.283%.
`CCOC(=O)C1CCCN(c2nccc(-n3nc(C)cc3C)n2)C1` (centres undefined): the cytotoxicity at 70.5 h was -9.69%.
In the case of `Cc1ccn(-c2ccnc(N3CCN(c4ncccn4)CC3)n2)n1`, the cytotoxicity at 70.5 h is -9.69%.
For the molecule `CCc1cc(=O)n(CC(=O)N2CCCC2)c(-c2ccc(F)cc2)n1`, the cytotoxicity at 70.5 h was -5.4%.
To `Cc1cc2nc(SCC(=O)NC(C)C)n(Cc3ccco3)c(O)c-2n1` belongs -14.4%; to `CN1CCN(C(=O)c2[nH]nnc2Nc2ccccc2F)CC1`, -14.3%; to `CC(C)CN1CCN(C(=O)c2[nH]nnc2Nc2ccccc2F)CC1`, 8.05%.
To `CCc1cc(=O)n(CC(=O)N2CCC(C)CC2)c(-c2ccccc2)n1` belongs -10.3%.
To `Cc1nc(-c2cccc(Cl)c2)n(CC(=O)NCC2CCCO2)c(=O)c1C` (centres undefined) belongs 3.53%; to `CCn1cc(NC(=O)c2cc(C)nc(N3CCOCC3)n2)cn1`, -10.6%; to `CC(=O)NCCCn1ncc2c(C)cccc21`, -10.8%.
`CCS(=O)(=O)NCCCn1ncc2c(C)cccc21`: the cytotoxicity at 70.5 h was -1.77%.
The figure for `c1cc(-c2nn3c(CN4CCOCC4)nnc3s2)ccn1` is -8.04%; for `COc1ccc(C)cc1S(=O)(=O)NCCC(O)c1ccccc1` (centres undefined) it is -10.5%.
The figure for `Cc1cc2n(n1)[C@@H](C(F)(F)F)C[C@@H](C1CCN(C(=O)C3CC3)CC1)N2` is -2.95%.
The figure for `CCc1cc(C(=O)N2CCC(c3cc4ncccc4cn3)CC2)no1` is 18.3%.
With `CCCN1C[C@H](NC(=O)c2cccs2)[C@@H](c2ccc(OC)cc2)C1`, the cytotoxicity at 70.5 h was 0.254%.
To `Cc1cc(C)n(CCCC(=O)N2CCc3ncc(Cl)cc3C2)n1` belongs 30.1%; to `Cc1nc(C)n(CC(=O)N2CCc3ncc(Cl)cc3C2)n1`, 7.22%; to `Cc1cnc(-c2nc(C3CCN(C(=O)Cc4ccsc4)CC3)no2)cn1`, 2.59%.
The figure for `CN1CCN(C(=O)CCn2c(C(F)(F)F)cc3cccnc32)CC1` is 34.4%.
Regarding `Cn1nccc1C(=O)N1Cc2ccccc2OC2(CCOCC2)C1`, the cytotoxicity at 70.5 h amounted to 1.33%.
For the molecule `Cc1ccc(C(=O)N2Cc3ccccc3OC3(CCOCC3)C2)cn1`, the cytotoxicity at 70.5 h was 30.6%.
The figure for `COc1ccc(-c2cc3nc([C@H](C)NC(=O)C4CC4)nn3cn2)cc1` is -0.493%; for `C[C@H](NC(=O)C1CCCC1)c1nc2cc(-c3ccc(F)cc3)ncn2n1` it is 4.97%.
Take `COc1ccccc1C1=NOC(CC2(C(=O)NCCO)CCOCC2)C1` (centres undefined): the cytotoxicity at 70.5 h was 0.737%.
To `c1ccc(-c2cc(CNCCN3CCOCC3)c3nnnn3c2)cc1` belongs -0.928%; to `COCCOCC(=O)N1C[C@@H]2CC[C@H](Oc3ccccc3Cl)[C@@H]2C1`, 0.895%.
As to `O=C(O)c1ccccc1CN1CCOC(CCc2ccncn2)C1` (centres undefined), the cytotoxicity at 70.5 h was -4.46%.
The figure for `CS(=O)(=O)NC[C@]1(O)CCN(C(=O)Cc2cccs2)C[C@H]1O` is 12.2%; for `COCCCNC(=O)c1ccccc1-n1cc(CN(C)C)cn1` it is -7.43%; for `CC(C)OCCCN(Cc1ccncc1)Cc1cccc(F)c1F` it is 22.3%.
The figure for `CC(C)OCCCN(Cc1ccncc1)Cc1cccc(F)c1` is 1.37%.
As for `Cn1cc(N2CC3(CCN(CC4CCC4)CC3)OCC2=O)cn1`, the cytotoxicity at 70.5 h is -7.64%.
The figure for `Cn1cc(N2CC3(CCN(Cc4nccs4)CC3)OCC2=O)cn1` is 39.5%; for `CCS(=O)(=O)N1CCOCC2(CCN(c3ccccn3)C2)C1` (centres undefined) it is -11.4%; for `CS(=O)(=O)N1CCOCC2(CCN(c3ccccn3)C2)C1` (centres undefined) it is -10.4%.
To `CC(=O)CN1CC2(CCNCC2)COc2ccccc2S1(=O)=O` belongs -12.2%.
To `CNC(=O)CN1CCOCC2(C1)CN(C(=O)CC(C)C)CCO2` (centres undefined) belongs -4.88%; to `COC(=O)CN1CC2(CCNCC2)COc2ccccc2S1(=O)=O`, 6.67%; to `CO[C@@H]1CCN(Cc2ccoc2)[C@@H]2CN(Cc3ccco3)C[C@@H]21`, -5.98%.
As to `c1cncc(OCc2noc3c2CN(Cc2ccco2)CC3)c1`, the cytotoxicity at 70.5 h is -17.4%.
To `N#Cc1cccc(CN2CCn3cc(Cn4cccn4)nc3C2)c1` belongs -16%.
The figure for `CCN(CC)c1ncnc2c1CCN(C(=O)Cc1ccccn1)CC2` is -1.31%; for `COc1cc(CN2CCn3c(CO)nnc3C2)ccc1OC(C)C` it is 34.7%; for `Cc1ccc(CN(CCCn2ccnc2)Cc2cccs2)s1` it is 18.6%.
